From paper PMC7589326, “Synthesis and Pharmacological Evaluation of Fluorinated Quinoxaline‐Based κ‐Opioid Receptor (KOR) Agonists Designed for PET Studies” (Chemmedchem, 2020)
Where two headings read alike, the source gives them in different places.

Columns and labels:
MOR [1] = target: T1, MOR (Cavia porcellus, UniProt A0ACM8Q262); assay: biochemical; type: binding, guinea pig; conditions: for inhibition at 1 µM: read-out: % inhibition at 1 μM MOR [3H]DAMGO
KOR [2] = target: T2, KOR (Cavia porcellus, UniProt P41144); assay: biochemical; type: binding, guinea pig
T2 construct: The thawed guinea pig brain membrane preparation (about 100 μg of the protein) was incubated; tissue Harlan-Winkelmann, Borchen, Germany; host or cells: guinea pig brain membrane homogenate

DOR = target: T3, DOR (Rattus norvegicus, UniProt P33533); assay: biochemical; type: binding; conditions: for inhibition at 1 µM: read-out: % inhibition at 1 μM DOR [3H]DPDPE
T3 construct: preparations from rat brain were employed in the DOR assay; tissue Harlan-Winkelmann, Borchen, Germany; host or cells: rat brain (Sprague Dawley) membrane homogenate

σ1 receptor [3] = target: T4, σ1 receptor (Cavia porcellus, UniProt Q60492); assay: biochemical; type: binding, guinea pig; conditions: read-out: % inhibition at 1 μM σ1 (+)-[3H]pentazocine
T4 construct: Membrane preparations from guinea pig brain were used in the MOR and σ1 assay; tissue Harlan-Winkelmann, Borchen, Germany; host or cells: guinea pig brain membrane homogenate

σ2 receptor [4] = target: T5, σ2 receptor (Rattus norvegicus, UniProt Q5U3Y7); assay: biochemical; type: binding; conditions: for inhibition at 1 µM: read-out: % inhibition at 1 μM σ2 [3H]DTG
T5 construct: tissue Harlan-Winkelmann, Borchen, Germany; host or cells: rat liver membrane homogenate
T5 sequence (Q5U3Y7 1-176): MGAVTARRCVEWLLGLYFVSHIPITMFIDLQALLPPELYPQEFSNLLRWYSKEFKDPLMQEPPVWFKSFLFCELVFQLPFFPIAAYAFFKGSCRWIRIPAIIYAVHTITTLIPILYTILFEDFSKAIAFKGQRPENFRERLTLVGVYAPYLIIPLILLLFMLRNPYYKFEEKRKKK

[5] = Distribution coefficient logD7.4, shake flask method with radioligand; type: physicochemical
Protocol: The distribution coefficient at pH 7.4 (logD7.4) was determined by a shake flask method using the radioligand [^18F]‐2. After distribution of [^18F]‐2 between n‐octanol and phosphate buffered saline (pH 7.4) layers, the radioactivity in both layers was determined and set in ratio. According to this procedure, a logD7.4 value of 1.37±0.06 was determined indicating a moderate lipophilic compound, which should be able to penetrate into the central nervous system.
The lipophilicity of radioligands [^18F]‐2 and [^18F]‐14c was assessed by determination of the water n‐octan‐1‐ol distribution coefficient (logD) following a published procedure.57 In brief, approximately 3.2 MBq of radioligand [^18F]‐2 and approximately 0.3 MBq of radiotracer [^18F]‐14c, respectively, were mixed with equal amounts (0.6 mL) of phosphate buffered saline (PBS, pH 7.4) and n‐octan‐1‐ol. The resulting biphasic system was mixed vigorously for 3 min at room temperature and subsequently, the tubes were centrifuged (≥5 min). Then 400 μL of the n‐octan‐1‐ol layer was separated and 400 μL of PBS were added. The mixture was mixed vigorously for 10 min at room temperature followed by centrifugation of the tubes for≥5 min. Two samples of 100 μL of each layer were counted in a γ‐counter (2480 Automatic Gamma Counter Wizard^2, Perkin‐Elmer). The distribution coefficient was determined by calculating the ratio cpm(n‐octan‐1‐ol)/cpm(PBS) and expressed as logD 7.4 (log(cpmn‐octanol/cpmPBS)). Three independent experiments were performed in duplicate and data were provided as mean values ±standard deviation.

[6] = Stability in mouse serum (radio-HPLC); type: in vitro ADME; conditions: 90 min, 37 °C
Protocol: (§1) Enzymes present in blood serum could be able to transform the radioactive PET tracer [^18F]‐2. Therefore, the blood serum stability of [^18F]‐2 was investigated before testing the tracer in vivo. [^18F]‐2 was incubated with mouse and human serum for 90 min at 37 °C.
(§2) The serum stability of radioligands [^18F]‐2 and [^18F]‐14c was evaluated by incubation in mouse or human serum at 37 °C for up to 90 min. An aliquot of formulated [^18F]‐2 or [^18F]‐14c (20 μL, ca. 6.6 MBq and ca.10 MBq, respectively) was added to a sample of mouse serum (200 μL) or human serum (200 μL), and the mixtures were incubated at 37 °C. Samples of 20 μL each were taken after periods of 10, 30, 60 and 90 min and ice‐cold DNA‐grade CH3CN (100 μL) were added. After centrifugation for ≥5 min, the supernatant was analyzed by analytical radio‐HPLC B, method B.

[7] = Stability in human serum (radio-HPLC); type: in vitro ADME; conditions: 90 min, 37 °C
Protocol: as §1, §2

[8] = In vivo biodistribution, small animal PET in C57BL/6 mice; parameters: species or system mouse
Protocol: Next, the distribution of the PET tracer [^18F]‐2 in mice was investigated. For this purpose, [^18F]‐2 was injected into 15‐week‐old C57BL/6 mice. […] Already after 2 min the radioactivity was almost completely found in liver, kidneys and bladder. In the liver, the radioactivity remained almost constant over the period of 90 min (Figure 6). Besides a transient local increase in radioactivity in the submandibular and harderian glands, no significant accumulation of [^18F]‐2 in non‐excreting organs such as heart, lung and muscles as indicator for unspecific binding could be detected.
Adult C57BL/6 mice (n=2 male, 15 weeks, 28 g for [^18F]‐2; n=2, male, 10 weeks, 25 g for [^18F]‐14c) were anesthetized by isoflurane/O2 and one lateral tail vein was cannulated BY using a 27 G needle connected to 15 cm polyethylene catheter tubing. Radiotracers (∼500 kBq/g bodyweight, 15 MBq) were injected as a bolus (50 μL compound flushed with 100 μL saline) via the tail vein and subsequent PET scanning was performed.
Small Animal PET Scanning. PET experiments were carried out using a submillimeter high resolution (0.7 mm full width at half‐maximum) small animal scanner (32 module quadHIDAC, Oxford Positron Systems Ltd., Oxford, UK) with uniform spatial resolution (<1 mm) over a large cylindrical field (165 mm diameter, 280 mm axial length). List‐mode data were acquired for 90 min and reconstructed into dynamic time frames using an iterative reconstruction algorithm. Subsequently, the scanning bed was transferred to the computed tomography (CT) scanner (Inveon, Siemens Medical Solutions, U.S.), and a CT acquisition with a spatial resolution of 80 μm was performed for each mouse. Reconstructed image data sets were coregistered based on extrinsic markers attached to the multimodal scanning bed and the in‐house developed image analysis software MEDgical. Three‐dimensional volumes of interest (VOIs) were defined over the respective organs in CT data sets, transferred to the coregistered PET data, and analyzed quantitatively. Regional uptake was calculated as percentage of injected dose by dividing counts per milliliter in the VOI by total counts in the mouse multiplied by 100 (%ID/mL).

mouse DCs (wild-type) = type: cell-based
[9] = test system: DCs from KOR-deficient mice; type: cell-based, mouse
human DCs = type: cell-based
[10] = test system: mouse T cells (wild-type); type: cell-based
KOR [11] = target: T6, KOR (Homo sapiens, UniProt P41145); assay: cell-based; parameters: expressed in transfected cells; host or cells: HEK 293T (ATCC CRL-11268)
Target sequence in this assay (P41145 whole entry, the tested form may be a part): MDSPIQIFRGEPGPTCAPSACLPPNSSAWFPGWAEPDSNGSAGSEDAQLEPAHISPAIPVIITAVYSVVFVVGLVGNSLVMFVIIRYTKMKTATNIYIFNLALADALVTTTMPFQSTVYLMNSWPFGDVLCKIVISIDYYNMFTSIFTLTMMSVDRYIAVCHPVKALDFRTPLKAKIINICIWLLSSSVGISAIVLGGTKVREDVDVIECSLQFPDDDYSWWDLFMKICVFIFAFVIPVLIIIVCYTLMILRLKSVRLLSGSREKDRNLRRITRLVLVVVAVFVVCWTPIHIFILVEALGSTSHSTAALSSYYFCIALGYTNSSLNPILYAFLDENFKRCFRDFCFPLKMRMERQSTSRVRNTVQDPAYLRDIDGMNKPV

KOR [12] = target: T6, KOR; assay: cell-based; parameters: expressed in transfected cells; host or cells: HTLA cells (stably expressing TEV-fused β-arrestin2)
Target sequence in this assay (P41145 whole entry, the tested form may be a part): as above
Target sequence in this assay (P32121 whole entry partner, the tested form may be a part): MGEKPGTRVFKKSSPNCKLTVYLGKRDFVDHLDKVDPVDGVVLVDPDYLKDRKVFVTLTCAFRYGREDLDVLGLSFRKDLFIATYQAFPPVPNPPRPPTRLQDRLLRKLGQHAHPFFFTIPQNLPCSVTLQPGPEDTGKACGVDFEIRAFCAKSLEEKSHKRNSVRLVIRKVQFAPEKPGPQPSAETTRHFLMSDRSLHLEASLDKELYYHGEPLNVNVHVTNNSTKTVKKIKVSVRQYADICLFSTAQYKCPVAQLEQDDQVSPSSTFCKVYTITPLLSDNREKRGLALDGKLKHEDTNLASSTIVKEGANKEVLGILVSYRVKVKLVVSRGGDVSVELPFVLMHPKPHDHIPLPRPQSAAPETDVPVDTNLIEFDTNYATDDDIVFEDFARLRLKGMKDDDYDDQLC

MOR [13] = target: T1, MOR; conditions: cited from earlier work
σ1 receptor [14] = target: T4, σ1 receptor; conditions: cited from earlier work
σ2 receptor [15] = target: T5, σ2 receptor; conditions: cited from earlier work
[16] = test system: T cells from KOR-deficient mice; type: cell-based, mouse
human T cells = type: cell-based

T2 sequence (P41144 whole entry): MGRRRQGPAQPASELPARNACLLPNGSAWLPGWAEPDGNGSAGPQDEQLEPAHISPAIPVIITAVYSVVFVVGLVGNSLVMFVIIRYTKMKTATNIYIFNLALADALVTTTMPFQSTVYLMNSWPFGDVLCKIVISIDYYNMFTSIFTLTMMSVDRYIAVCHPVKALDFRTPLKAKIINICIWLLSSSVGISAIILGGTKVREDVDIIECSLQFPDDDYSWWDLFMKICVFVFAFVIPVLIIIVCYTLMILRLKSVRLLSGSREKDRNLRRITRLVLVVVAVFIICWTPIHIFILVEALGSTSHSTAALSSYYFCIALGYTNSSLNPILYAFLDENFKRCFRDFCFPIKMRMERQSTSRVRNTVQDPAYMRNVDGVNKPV
T3 sequence (P33533 whole entry): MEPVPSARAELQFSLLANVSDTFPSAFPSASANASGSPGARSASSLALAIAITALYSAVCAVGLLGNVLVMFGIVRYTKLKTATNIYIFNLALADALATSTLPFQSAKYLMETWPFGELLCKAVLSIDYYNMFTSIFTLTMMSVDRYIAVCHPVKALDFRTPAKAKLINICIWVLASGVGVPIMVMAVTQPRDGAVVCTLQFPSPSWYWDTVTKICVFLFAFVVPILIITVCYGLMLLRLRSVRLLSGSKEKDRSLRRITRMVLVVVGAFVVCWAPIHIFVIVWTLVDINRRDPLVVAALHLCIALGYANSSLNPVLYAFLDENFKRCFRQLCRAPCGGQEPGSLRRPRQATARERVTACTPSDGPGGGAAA
T1 sequence (A0ACM8Q262 1-400): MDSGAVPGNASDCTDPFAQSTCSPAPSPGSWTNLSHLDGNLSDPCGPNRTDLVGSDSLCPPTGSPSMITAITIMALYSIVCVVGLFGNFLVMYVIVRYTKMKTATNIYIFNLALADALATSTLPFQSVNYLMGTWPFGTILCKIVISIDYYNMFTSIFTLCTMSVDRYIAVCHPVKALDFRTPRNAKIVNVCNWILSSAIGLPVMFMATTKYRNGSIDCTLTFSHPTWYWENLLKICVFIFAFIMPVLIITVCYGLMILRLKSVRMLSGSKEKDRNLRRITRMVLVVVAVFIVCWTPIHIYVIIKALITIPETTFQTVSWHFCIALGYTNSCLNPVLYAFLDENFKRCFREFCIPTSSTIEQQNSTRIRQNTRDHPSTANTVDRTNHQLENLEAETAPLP
T4 sequence (Q60492 whole entry): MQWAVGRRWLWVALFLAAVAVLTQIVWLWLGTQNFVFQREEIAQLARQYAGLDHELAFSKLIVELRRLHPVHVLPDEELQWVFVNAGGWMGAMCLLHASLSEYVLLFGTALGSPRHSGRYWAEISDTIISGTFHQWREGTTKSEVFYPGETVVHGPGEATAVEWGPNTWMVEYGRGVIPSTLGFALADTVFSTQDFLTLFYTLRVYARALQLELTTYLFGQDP

DAMGO [reference compound]
Kd (MOR [1]; read-out: Kd-value of radioligand, MOR assay): 0.57 nM

CC(C)(C)OC(=O)N1CCN(C(=O)Cc2ccc(Cl)c(Cl)c2)[C@@H]2[C@@H](N3CC[C@H](O)C3)CCC[C@@H]21 (mixture of isomers) [12a, tert‐Butyl (4aR,5S,8aS)‐ and (4aS,5R,8aR)‐4‐[2‐(3,4‐dichlorophenyl)acetyl]‐5‐[(S)‐3‐hydroxypyrrolidin‐1‐yl]‐3,4,4 a,5,6,7,8,8 a‐octahydroquinoxaline‐1(2H)‐carboxylate]
Ki (KOR [2]; Ki±SEM KOR [3H]U-69,593): 16 ± 2 nM
inhibition at 1 µM (MOR [1]): 9%
inhibition at 1 µM (DOR): 5%
inhibition at 1 µM (σ1 receptor [3]): 0%
inhibition at 1 µM (σ2 receptor [4]): 0%

COC(=O)N1CCN(C(=O)Cc2ccc(Cl)c(Cl)c2)[C@@H]2[C@@H](N3CC[C@@H]([18F])C3)CCC[C@@H]21 [[^18F]‐14c, Methyl (4aR,5S,8aS)‐ and (4aS,5R,8aR)‐4‐[2‐(3,4‐dichlorophenyl)acetyl]‐5‐[(R)‐3‐[^18F]fluoropyrrolidin‐1‐yl]‐3,4,4 a,5,6,7,8,8 a‐octahydroquinoxaline‐1(2H)‐carboxylate]
concentration in the n-octanol layer relative to [18F]-2 ([5]; n-octanol / PBS pH 7.4): 15 fold
logD ([5]; n-octanol / phosphate buffered saline pH 7.4): 2.54 ± 0.22
stability in mouse serum [6]: high stability
stability in human serum [7]: high stability
residual radioactivity in organs ex vivo (γ-counter) ([8]; 90 min after injection): mainly present in the excretion organs and in the urine
radioactivity in the bones / defluorination ([8]; C57BL/6 mice, intravenous injection): fast defluorination
clearance from the body ([8]; C57BL/6 mice, intravenous injection, hepatic and renal pathways): fast

COC(=O)N1CCN(C(=O)Cc2ccc(Cl)c(Cl)c2)[C@@H]2[C@@H](N3CC[C@H](O)C3)CCC[C@@H]21 (mixture of isomers) [12c, Methyl (4aR,5S,8aS)‐ and (4aS,5R,8aR)‐4‐[2‐(3,4‐dichlorophenyl)acetyl]‐5‐[(S)‐3‐hydroxypyrrolidin‐1‐yl]‐3,4,4 a,5,6,7,8,8 a‐octahydroquinoxaline‐1(2H)‐carboxylate]
Ki (KOR [2]; Ki±SEM KOR [3H]U-69,593): 9.2 ± 6 nM
inhibition at 1 µM (MOR [1]): 5%
Ki (DOR): 693 nM
inhibition at 1 µM (σ1 receptor [3]): 0%
inhibition at 1 µM (σ2 receptor [4]): 5%
expression of maturation marker CD11c and IFN-γ production (mouse DCs (wild-type)): significantly reduced
anti-inflammatory effect (CD11c, IFN-γ) in DCs from KOR-deficient mice [9]: completely abrogated
expression of CD11c and production of IFN-γ in human DCs (human DCs): reduced
expression of surface activation markers CD25, CD44 and CD69 and IFN-γ production [10]: did not modulate the activation status
EC50 (KOR [11]): 0.19 nM
Emax (KOR [11]; HEK-293T, read-out: cAMP E max): 100%
EC50 (KOR [12]): 8.8 nM
Emax (KOR [12]; HTLA, read-out: β-Arrestin-2 E max): 82%

CC(C)(C)OC(=O)N1CCN(C(=O)Cc2ccc(Cl)c(Cl)c2)[C@@H]2[C@@H](N3CCCC3)CCC[C@@H]21 [1a]
Ki (MOR [13]; read-out: Ki MOR [3H]DAMGO): 260 nM
% inhibition at 1 μM σ1 (+)-[3H]pentazocine (σ1 receptor [14]): 12%
% inhibition at 1 μM σ2 [3H]DTG (σ2 receptor [15]): 16%

COC(=O)N1CCN(C(=O)Cc2ccc(Cl)c(Cl)c2)[C@@H]2[C@@H](N3CCCC3)CCC[C@@H]21 [1c]
% inhibition at 1 μM MOR [3H]DAMGO (MOR [13]): 0%
% inhibition at 1 μM σ1 (+)-[3H]pentazocine (σ1 receptor [14]): 0%
% inhibition at 1 μM σ2 [3H]DTG (σ2 receptor [15]): 8%

COC(=O)N1CCN(C(=O)Cc2ccc(Cl)c(Cl)c2)[C@@H]2[C@@H](N3CC[C@@H](F)C3)CCC[C@@H]21 (mixture of isomers) [14c, Methyl (4aR,5S,8aS)‐ and (4aS,5R,8aR)‐4‐[2‐(3,4‐dichlorophenyl)acetyl]‐5‐[(R)‐3‐fluoropyrrolidin‐1‐yl]‐3,4,4 a,5,6,7,8,8 a‐ octahydroquinoxaline‐1(2H)‐carboxylate]
Ki (KOR [2]): 0.82 ± 0.69 nM
selectivity over the related MOR, DOR and σ receptors (KOR [2]): more than 1000 fold
inhibition at 1 µM (MOR [1]): 0%
inhibition at 1 µM (DOR): 12%
inhibition at 1 µM (σ1 receptor [3]): 8%
Ki (σ2 receptor [4]): 962 nM
expression of maturation marker CD11c and IFN-γ production (mouse DCs (wild-type)): significantly reduced
anti-inflammatory effect (CD11c, IFN-γ) in DCs from KOR-deficient mice [9]: completely abrogated
expression of CD11c and production of IFN-γ in human DCs (human DCs): reduced
anti-inflammatory cytokine IL-10 in cell cultures [10]: significant upregulation
expression of surface activation markers CD25, CD44 and CD69 and IFN-γ production [10]: significantly reducing
expression of activation markers or cytokine release in T cells from KOR-deficient mice [16]: did not result in an altered expression
IL-10 induction (human T cells): only slightly but not significantly induced
expression of surface activation markers CD25 and CD69 and IFN-γ secretion (human T cells): significantly reduce
